Data as given in US20130345392A1, “EDN3-LIKE PEPTIDES AND USES THEREOF” (Pfizer Inc, priority 2011, published 2013).
Bridges are numbered along the chain shown (N, C = ends). Where no end group is shown, it is not given here.

What was measured:
[1] = target: T1, human endothelin ETB receptor (Homo sapiens, UniProt P24530); experiment: Radioligand binding, human endothelin ETB receptor in transfected CHO cell membranes; settings: tested at a concentration of up to 3 μM (p>0.05)
T1 construct: expressed in transfected cells; host or cells: CHO cells
T1 sequence (P24530 27-442): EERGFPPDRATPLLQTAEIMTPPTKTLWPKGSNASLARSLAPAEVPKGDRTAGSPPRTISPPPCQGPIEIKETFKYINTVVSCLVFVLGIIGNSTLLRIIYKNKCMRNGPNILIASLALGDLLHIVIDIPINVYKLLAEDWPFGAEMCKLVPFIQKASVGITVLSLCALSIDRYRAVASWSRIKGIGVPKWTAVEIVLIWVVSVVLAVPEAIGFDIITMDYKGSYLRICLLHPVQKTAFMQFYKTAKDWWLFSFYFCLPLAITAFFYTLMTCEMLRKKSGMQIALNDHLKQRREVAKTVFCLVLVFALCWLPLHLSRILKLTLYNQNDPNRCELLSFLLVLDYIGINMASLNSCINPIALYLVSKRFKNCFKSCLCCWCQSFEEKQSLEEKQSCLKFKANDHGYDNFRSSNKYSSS
Experimental: To evaluate the affinity of EDN3 97-140 for the agonist site of the human endothelin ETB receptor in transfected CHO cells, radioligand binding was used. […] Following incubation, the samples were filtered rapidly under vacuum through glass fiber filters (GF/B, Packard) presoaked with 0.1% BSA and rinsed several times with an ice-cold buffer containing 50 mM Tris-HCl and 150 mM NaCl using a 96-sample cell harvester (Unifilter, Packard). The filters were dried then counted for radioactivity in a scintillation counter (Topcount, Packard) using a scintillation cocktail (Microscint 0, Packard).

DIO mice = experiment: Glucose tolerance (IPGTT) in DIO mice; assay type: in vivo, mouse; settings: for decrease of glucose excursion: 2 g/kg glucose challenge i.p., mean±SEM n=8
Experimental: DIO mice fed on a high fat diet for 14 weeks and ob/ob mice were purchased from Jackson Labs. Ob/Ob mice and DIO mice used in all studies were used at 7 and 18 weeks old, respectively. After an overnight fast, ob/ob and DIO mice were injected with vehicle (20 mM Na acetate/140 mM NaCl) or EDN3 97-140 (0.1, 1 or 10 mg/kg i.p.) followed by a […] (i.p.) or 2 g/kg (i.p.) D-glucose challenge in ob/ob and DIO mice respectively. Plasma glucose levels were determined from mouse tail vein bleeds at 0, 15, 30, 60, and 120 minutes after compound injection and measured using an automatic glucometer (Alpha-Trak). To determine the acute insulin release, plasma insulin levels were measured by using an ELISA kit with mouse insulin as a standard (Meso Scale Discovery). Results were expressed as percentages of vehicle concentrations and statistical significance determined by 2-way ANOVA repeated measures.

rat perfused colon = experiment: GLP-1 secretion from rat perfused colon ex vivo
Experimental: Ex vivo rat colon vascular perfusion experiments were performed as previously described (Plaisancié, 1995). Male Sprague-Dawley rats (300 g) were purchased from Charles River and fed ad libitum with Purina Lab Chow #5001 (WF Fisher and Son Inc Sommerville, N.J.). Rats were decapitated and the abdomen was opened with a midline incision. […] The arterial vascular perfusion started immediately with an oxygenated Krebs-Henseleit buffer containing-solution at a rate of 2 mL/minute [solution: Krebs-Henseleit buffer (25.0 mM NaHCO3; 118 mM NaCl; 4.7 mM KCl; 1.2 mM MgSO4; 1.2 mM KH2PO4; 2.5 mM CaCl2) with 3% BSA, 5 mM glucose, MEM essential and nonessential amino acids (pH 7.4)]. The colonal lumen was perfused at the rate of 0.5 mL/minute. The remaining colon and small intestine were removed after the ligation of their respective supplying vessels. After the colon preparation was transferred to a 37° C. tissue bath, the portal effluent was collected as 5 minute fractions. The fraction aliquots were frozen at −20° C. for subsequent determinations of GLP-1. EDN3 97-140 was dissolved at 200 nM in vascular perfusion solution and perfused into the artery after a 30 minute baseline collection. […] The GLP-1 detection assay was carried out by using a commercial kit for active GLP-1 (7-36) amide according to the manufacturer's instructions (Millipore). GLP-1 release data was normalized to % baseline using the average of fractions collected prior to treatment as the baseline value and the peak data following each treatment. The average data across 3 independent experiments was reported comparing EDN3 97-140 versus control (baseline) and forskolin versus control (baseline). Statistical analysis was performed by one sided Satterwaite's test due to unequal variance and the Holm test was applied to account for multiple comparisons.

H4IIE rat hepatoma cells = experiment: H4IIE glucose production in vitro; assay type: cell-based; settings: 100 nM, 24 hours, mean of 3 independent experiments±SEM, p=0.01
Experimental: Cell culture reagents were purchased from Invitrogen (Gathersburg, Md.) unless otherwise noted. GLUTag cells were obtained from Dr. Daniel Drucker and cultured in High Glucose DMEM medium supplemented with 100 U/mL penicillin, 100 μg/mL streptomycin, and 10% fetal calf serum at 10% CO2 at 37° C. H4IIE rat hepatoma cells were purchase from American Type Culture Collection (Manassas, Va.) and cultured in low glucose DMEM supplemented with 100 U/mL penicillin, 100 μg/mL streptomycin, 2 mM L-glutamine and 10% heat-inactivated fetal calf serum at 5% CO2 and 37° C.
H4IIE cells were plated at 120,000 cells per well into 96-well Poly-D-Lysine coated plates and treated using a modification of the protocol as previously reported (de Raemy-Schenk, 2006). Briefly, 4 hours after plating, growth medium was exchanged for glucose production medium (glucose-free DMEM, 2 mM sodium pyruvate, and 20 mM sodium lactate) for 18 hours and then cells were treated with EDN3 97-140 or vehicle in fresh glucose production medium. After 24 hours, media was collected and assayed for glucose using an Amplex Red Glucose/Glucose Oxidase Assay Kit purchased from Invitrogen (Gathersburg, Md.). Data was reported as a percent of vehicle to normalize across experiments. […]

Insulin tolerance test = assay type: in vivo; settings: 1 and 10 mg/kg i.p., acute administration (data not shown)

binding to ETB receptor [1]: failed to bind
Substance: CTCFTYKDKECVYYCHLDIIWINTPEQTVPYGLSNYRESLRGKR-NH2 (disulfide 1-15, 3-11) [EDN3 97-140]
decrease of glucose excursion (DIO mice; DIO mice, 0.1 mg/kg i.p.): 19±7.2%
decrease of glucose excursion (DIO mice; DIO mice, 1 mg/kg i.p.): 20.7±8.7%
insulin during IPGTT (DIO mice; DIO mice, i.p. (p>0.05)): no statistically significant effect on insulin
glucose excursion curve in response to an IPGTT (DIO mice; diet induced obese mice, acute peripheral administration 0.1, 1 or 10 mg/kg i.p.): decreased
increase in GLP secretion from the rat perfused colon (rat perfused colon; 200 nM perfused via the superior mesenteric artery, vs baseline, p=0.0438): 56±18%
increase in GLP-1 release (rat perfused colon; 200 nM, rat perfused colon): ~10 pM
reduction of basal glucose production versus vehicle (H4IIE rat hepatoma cells): 19.5±7.6%
effect on insulin tolerance test (Insulin tolerance test): no effect
